How the values were obtained:
[1] = molecular target: T1, recombinant Human Phosphodiesterase B2 (PDE4B2) (Homo sapiens, UniProt Q07343); assay: Human Phosphodiesterase B2 Radiometric Assay; format: biochemical; settings: for IC50: read-out: PDE4B2 pIC50 (converted)
Procedure: Human Phosphodiesterase B2 Radiometric Assay
The assay uses recombinant Human Phosphodiesterase B2 (PDE4B2) produced in house (PrAZL0163), stored at −20° C. This assay is based on the observation that 5′AMP, the product of the reaction catalysed by PDE4, binds preferentially to yttrium silicate SPA beads (Amersham Biosciences, UK) compared to the substrate, cAMP. Compounds at the appropriate concentration were preincubated at 30 C for 30 min. with an assay buffer containing 50 mM HEPES (pH 7.5), 8.3 mM MgCl2, 1.7 mM EGTA, 0.01% (w/v) Brij®35 and 0.1 μg/mL recombinant PDE4B2. The reaction was started by the addition of [3H]cyclic AMP to give a final concentration of 8 nM, and was stopped 20 minutes after the addition of the substrate by the addition of yttrium silicate SPA beads containing 18 mM Zn SO4. Bound [3H]cyclic AMP was measured using a Topcount NXT (Packard Bioscience, UK). pIC50 values (presented in Table 15) were determined using X1fit3 curve fitting, using model 205.

[2] = molecular target: T1, recombinant Human Phosphodiesterase B2 (PDE4B2); assay: Human Phosphodiesterase B2 Alpha Screen Assay; format: biochemical; settings: Alpha Screen cAMP assay, 60 minutes incubation at room temperature, read-out: PDE4B2 pIC50 (converted)
Procedure: Human Phosphodiesterase B2 Alpha Screen Assay
The assay uses recombinant Human Phosphodiesterase B2 (PDE4B2) produced in house (PrAZL0133), stored at −20° C. The substrate uses cAMP, part of the Alpha Screen cAMP kit (Perkin Elmer, Cat#6760625M), stored at 4° C. The Alpha Screen kit also includes biotinylated cAMP, acceptor and donor beads.
The assay additions were as follows: Test compounds and controls were added to white 384-well flat-bottom plates (Greiner, Cat#781075), 0.2 μl in 100% DMSO, followed by 10 μl PDE4B2 in reaction buffer. The reaction buffer constitution was: 50 mM Tris (pH 7.5), 8.3 mM MgCl2, 1.7 mM EGTA and 0.01% (w/v) Brij®35. The enzyme and the compounds were incubated at room temperature for 15 minutes. Then 10 μl cAMP in reaction buffer was added. The assay was stopped after 60 minutes incubation at room temperature by adding 10 μl acceptor beads in detection buffer with 40 mM EDTA. The detection buffer constitution was: 5 mM Tris (pH 7.5), 0.1% (w/v) BSA and 0.1% (v/v) Tween 20. This addition followed by an addition of 10 μl donor beads in detection buffer, with biotinylated cAMP. The plates were then incubated, dark at room temperature, for 5 hours followed by measurement on a Fusion™-α analyser. pIC50 values (presented in Table 14) were determined using X1fit curve fitting using model 205.

[3] = recombinant human PDE4B2, [3H]cyclic AMP 8 nM, SPA radiometric assay

T1 sequence (Q07343 1-564 isoform Q07343-2): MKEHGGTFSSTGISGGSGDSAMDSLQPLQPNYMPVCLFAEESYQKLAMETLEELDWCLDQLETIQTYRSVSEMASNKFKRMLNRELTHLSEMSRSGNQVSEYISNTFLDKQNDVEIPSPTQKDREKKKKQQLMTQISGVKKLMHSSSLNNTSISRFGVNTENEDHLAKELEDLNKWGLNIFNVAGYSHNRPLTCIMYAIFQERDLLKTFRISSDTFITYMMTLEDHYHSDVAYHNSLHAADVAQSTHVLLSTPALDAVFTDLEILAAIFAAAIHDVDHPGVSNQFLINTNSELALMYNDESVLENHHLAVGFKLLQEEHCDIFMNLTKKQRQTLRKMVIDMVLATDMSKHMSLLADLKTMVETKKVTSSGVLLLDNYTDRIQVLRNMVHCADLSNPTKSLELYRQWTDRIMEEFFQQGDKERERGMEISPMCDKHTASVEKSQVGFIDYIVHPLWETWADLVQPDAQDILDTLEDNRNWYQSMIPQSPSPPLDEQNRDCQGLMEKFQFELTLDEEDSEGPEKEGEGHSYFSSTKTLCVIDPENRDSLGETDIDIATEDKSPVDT

## O=C(N[C@H]1CC[C@@H](n2c(=O)c3cc(F)cnc3n(-c3cccc(OCCN4CCOCC4)c3)c2=O)CC1)c1cn2cc(F)ccc2n1 [Example 43, 6-fluoro-N-{cis-4-[6-fluoro-1-[3-(2-morpholin-4-ylethoxy)phenyl]-2,4-dioxo-1,4-dihydropyrido[2,3-d]pyrimidin-3 (2H)-yl]cyclohexyl}imidazo[1,2-a]pyridine-2-carboxamide]
[1]; [3]
  IC50: 0.001 µM

## COC(=O)[C@H]1CC[C@H](n2c(=O)n([C@H]3CC[C@@H](NC(=O)C4CC4)CC3)c(=O)c3cc(F)cnc32)CC1 [Example 8, methyl trans-4-[3-{cis-4-[(cyclopropylcarbonyl)amino]cyclohexyl}-6-fluoro-2,4-dioxo-3,4-dihydropyrido[2,3-d]pyrimidin-1(2H)-yl]cyclohexanecarboxylate]
[2]
  IC50: 0.0501 µM

## CN(C)CCCn1c(=O)n([C@H]2CC[C@@H](NC(=O)c3cn4cc(F)ccc4n3)CC2)c(=O)c2cc(F)cnc21 [Example 41, N-{cis-4-[1-[3-(dimethylamino)propyl]-6-fluoro-2,4-dioxo-1,4-dihydropyrido[2,3-d]pyrimidin-3(2H)-yl]cyclohexyl}-6-fluoroimidazo[1,2-a]pyridine-2-carboxamide]
[1]; [3]
  IC50: 0.158 µM

## O=C(NC1CN2CCC1CC2)c1cccc(-n2c(=O)n([C@H]3CC[C@@H](NC(=O)c4cn5cc(F)ccc5n4)CC3)c(=O)c3cc(F)cnc32)c1 (some centres unmarked) [Example 42]
[1]; [3]
  PDE4B2 pIC50: 7.7

## CN1CCC(n2c(=O)n([C@H]3CC[C@@H](NC(=O)c4cn5cc(F)ccc5n4)CC3)c(=O)c3cc(F)cnc32)CC1 [Example 40, 6-fluoro-N-{cis-4-[6-fluoro-1-(1-methylpiperidin-4-yl)-2,4-dioxo-1,4-dihydropyrido[2,3-d]pyrimidin-3(2H)-yl]cyclohexyl}imidazo[1,2-a]pyridine-2-carboxamide]
[1]; at 0.32 uM, recombinant human PDE4B2, radiometric assay
  PDE4B2 % at 0.32 uM (printed in the pIC50 column): 50% at 0.32 uM

— patent publication US20120077801A1, “Chemical Compounds 637” (priority 2007, published 2012)
